The subject of the assay is outward potassium currents in DRG neurons. In words: Whole cell patch clamp recording of outward potassium currents in DRG neurons using the interface chamber. The class given is cell-based. As to the method:
The current across a patch clamp measuring electrode and cell versus time is shown. Whole cell recording measurements were obtained via conventional methods. The interface chamber was moved to surround the cell as in steps 101-103 above. A measurement of current was recorded while the cell was in a well containing a normal saline (control) solution. The cell was then moved from normal saline to a well containing increasing concentrations (from 0 to 10 mM in increasing increments) of the K^+ channel blocker 4-AP. For each of the measurements, cells were held at −50 mV, stepped with a prepulse to −100 mV for 400 ms and then stepped for the test to +40 mV. After the test pulse, cells were repolarized to −60 mV. Sweeps were obtained every 10 sec, and 5 sweeps were obtained per well. The interface was moved from one well to the next in a short time, such as 2 seconds.
Outward currents due to K^+ flow from the cell is shown. […] The lower current is consistent with the expected blocking effected of the 4-AP. Both the peak current (the spike at the left of graph of each measurement) and the end current (final value of current for each measurement) decreased as the concentration of 4-AP increased.
FIG. 8 illustrates a graph showing the peak current of a fractional block versus the concentration of a test substance according to one example of the invention. […] The dose response curve shown illustrates the ability of this system to measure multiple concentrations of test substance accurately.
On the technique in general: In patch-clamp work, channel activity is measured electrically.

Where [1] appears, read: highest concentration tested (10 mM).

As for `Nc1ccncc1` [4-AP], the “end current (final value of current for each measurement)” value (as the concentration of 4-AP increased (0 to 10 mM)) was “decreased”. Besides, the peak current entry (as the concentration of 4-AP increased (0 to 10 mM), FIG. 7, shown as fractional block in FIG. 8) was “the peak current decreased as the concentration of 4-AP increased”. For the same molecule, under setting [1], the inactivating current remaining entry is given as “no inactivating current remains” and the “non-inactivating (persistent) current remaining” value was “significant non-inactivating (persistent) current persists”. Also, where the note is “whole cell, increasing 4-AP concentrations from 0 to 10 mM, test pulse to +40 mV”, the “current across the cell membrane (outward K+ current)” value is reported as “decreased the current across the cell membrane”.

The values are drawn from patent US20050241940A1, “Fast perfusion system and patch clamp technique utilizing an interface chamber system having high throughput and low volume requirements” (Wyeth, priority 2004, published 2005).
